Assay results taken from paper PMC3950665, “Syn5 RNA polymerase synthesizes precise run-off RNA products” (Nucleic Acids Research, 2013).

What was measured:
Syn5 RNA polymerase = target: T1, Syn5 RNA polymerase (Synechococcus phage Syn5, UniProt A4ZR96); experiment: run-off transcription, agarose gel and RNA yield by A260; format: biochemical; conditions: ATP, GTP, NotI-linearized pET24-Syn5RNAP, 6 mM MgCl2, pH 8.0, no KCl, 24°C
T1 construct: gene 15; His-tagged, pET24 (NdeI/NotI), expressed in E. coli BL21(DE3); single-subunit
T1 sequence (A4ZR96 1-779): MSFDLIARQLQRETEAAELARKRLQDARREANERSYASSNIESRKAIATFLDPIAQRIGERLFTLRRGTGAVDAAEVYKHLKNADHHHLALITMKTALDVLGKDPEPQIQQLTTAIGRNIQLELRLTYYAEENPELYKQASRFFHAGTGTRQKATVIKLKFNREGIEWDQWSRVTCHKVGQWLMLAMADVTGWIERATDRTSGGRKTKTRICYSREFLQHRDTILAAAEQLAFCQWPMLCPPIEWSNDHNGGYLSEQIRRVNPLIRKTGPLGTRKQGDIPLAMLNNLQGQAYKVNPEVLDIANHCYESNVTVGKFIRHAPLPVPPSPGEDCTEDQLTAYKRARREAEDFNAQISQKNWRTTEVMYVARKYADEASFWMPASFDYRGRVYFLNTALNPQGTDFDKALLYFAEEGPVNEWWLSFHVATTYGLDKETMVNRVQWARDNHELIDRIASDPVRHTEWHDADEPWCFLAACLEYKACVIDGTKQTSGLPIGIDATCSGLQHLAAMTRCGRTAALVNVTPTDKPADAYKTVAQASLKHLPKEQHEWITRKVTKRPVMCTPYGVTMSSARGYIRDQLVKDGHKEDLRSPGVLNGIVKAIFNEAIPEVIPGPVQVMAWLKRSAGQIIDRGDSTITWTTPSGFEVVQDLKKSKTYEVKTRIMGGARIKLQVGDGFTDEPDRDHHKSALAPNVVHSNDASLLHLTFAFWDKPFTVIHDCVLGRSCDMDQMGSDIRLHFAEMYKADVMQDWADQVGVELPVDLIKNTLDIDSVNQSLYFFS

T7 RNA polymerase = target: T2, T7 RNA polymerase (Escherichia phage T7, UniProt P00573); experiment: as above; format: biochemical; conditions: ATP, GTP, NotI-linearized pET24-Syn5RNAP, 6 mM MgCl2, pH 8.0, no KCl, 37°C
T2 construct: gene 1
T2 sequence (P00573 whole entry): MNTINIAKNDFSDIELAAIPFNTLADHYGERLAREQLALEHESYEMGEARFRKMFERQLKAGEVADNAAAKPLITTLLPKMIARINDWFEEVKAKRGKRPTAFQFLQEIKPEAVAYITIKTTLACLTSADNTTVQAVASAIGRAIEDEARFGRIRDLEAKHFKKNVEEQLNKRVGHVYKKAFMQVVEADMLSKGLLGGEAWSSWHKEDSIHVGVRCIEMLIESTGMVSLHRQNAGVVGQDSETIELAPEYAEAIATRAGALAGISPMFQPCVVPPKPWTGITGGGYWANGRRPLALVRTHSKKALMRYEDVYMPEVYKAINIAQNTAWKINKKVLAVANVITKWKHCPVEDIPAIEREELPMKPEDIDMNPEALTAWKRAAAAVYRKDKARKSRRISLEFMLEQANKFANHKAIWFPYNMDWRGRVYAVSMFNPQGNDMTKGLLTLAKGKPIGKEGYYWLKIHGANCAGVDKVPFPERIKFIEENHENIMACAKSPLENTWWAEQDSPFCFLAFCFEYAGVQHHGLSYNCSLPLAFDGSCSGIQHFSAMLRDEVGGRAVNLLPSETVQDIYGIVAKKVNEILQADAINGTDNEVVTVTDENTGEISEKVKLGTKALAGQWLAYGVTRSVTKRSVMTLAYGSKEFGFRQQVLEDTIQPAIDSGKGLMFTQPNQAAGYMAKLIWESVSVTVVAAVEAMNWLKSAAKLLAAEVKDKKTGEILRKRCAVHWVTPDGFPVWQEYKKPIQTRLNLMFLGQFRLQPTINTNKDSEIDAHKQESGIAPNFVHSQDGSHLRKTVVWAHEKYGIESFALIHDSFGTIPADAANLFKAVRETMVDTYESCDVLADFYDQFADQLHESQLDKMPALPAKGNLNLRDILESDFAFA

SMILES: Cc1cn([C@@H]2O[C@H](COP(=O)(O)OP(=O)(O)OP(=O)(O)O)[C@@H](O)[C@H]2O)c(=O)nc1N [5-methylcytidine-5′-triphosphate]
- run-off transcription, agarose gel and RNA yield by A260 (Syn5 RNA polymerase; replaces CTP at 600 µM, UTP): the efficiency by which Syn5 RNA polymerase incorporated 5mC and Ps-U
- run-off transcription, agarose gel and RNA yield by A260 (T7 RNA polymerase; replaces CTP at 600 µM, UTP): T7 RNA polymerase also incorporates 5mC and Ps-U at comparable efficiencies

SMILES: O=c1[nH]cc([C@@H]2O[C@H](COP(=O)(O)OP(=O)(O)OP(=O)(O)O)[C@@H](O)[C@H]2O)c(=O)[nH]1 [pseudouridine-5′-triphosphate]
- run-off transcription, agarose gel and RNA yield by A260 (Syn5 RNA polymerase; replaces UTP at 600 µM, CTP): the efficiency by which Syn5 RNA polymerase incorporated 5mC and Ps-U
- run-off transcription, agarose gel and RNA yield by A260 (T7 RNA polymerase; replaces UTP at 600 µM, CTP): T7 RNA polymerase also incorporates 5mC and Ps-U at comparable efficiencies
